Measurements from ChEMBL document CHEMBL3217468 (Medchemcomm, 2012).
In brackets after ≈: the same amount, converted by molar mass.

Tests used:
[1] = system: Staphylococcus epidermidis; test: Antibacterial activity against Staphylococcus epidermidis assessed as growth inhibition; format: functional
Staphylococcus aureus [2] = test: Antibacterial activity against Staphylococcus aureus harboring mutant SPase by CLSI broth microdilution method; format: functional
Streptococcus pneumoniae [3] = test: Antibacterial activity against wild type Streptococcus pneumoniae by CLSI broth microdilution method; format: functional
[4] = system: Staphylococcus epidermidis; test: Antibacterial activity against wild type Staphylococcus epidermidis by CLSI broth microdilution method; format: functional
[5] = system: Staphylococcus epidermidis; test: Antibacterial activity against Staphylococcus epidermidis harboring mutant SPase by CLSI broth microdilution method; format: functional
Escherichia coli [6] = test: Antibacterial activity against Escherichia coli harboring mutant SPase by CLSI broth microdilution method; format: functional
Pseudomonas aeruginosa [7] = test: Antibacterial activity against Pseudomonas aeruginosa harboring mutant SPase by CLSI broth microdilution method; format: functional
Escherichia coli [8] = test: Antibacterial activity against wild type Escherichia coli by CLSI broth microdilution method; format: functional
Pseudomonas aeruginosa [9] = test: Antibacterial activity against wild type Pseudomonas aeruginosa by CLSI broth microdilution method; format: functional
Staphylococcus aureus [10] = test: Antibacterial activity against wild type Staphylococcus aureus by CLSI broth microdilution method; format: functional
Streptococcus agalactiae = test: Antibacterial activity against wild type Streptococcus agalactiae by CLSI broth microdilution method; format: functional
Staphylococcus aureus [11] = test: Antibacterial activity against Staphylococcus aureus harboring wild type SPase by modified CLSI microbroth dilution method; format: functional
Escherichia coli [12] = test: Antibacterial activity against Escherichia coli harboring SPase P84S mutant gene by modified CLSI microbroth dilution method; format: functional
Prescottella equi = test: Antibacterial activity against Rhodococcus equi harboring SPase with valine or isoleucine residue at position 29 by modified CLSI microbroth dilution method; format: functional; conditions: Rhodococcus (subgen. Prescottella) equi
Rhodococcus opacus = test: Antibacterial activity against Rhodococcus opacus harboring SPase with valine residue at position 29 by modified CLSI microbroth dilution method; format: functional
Streptococcus pyogenes = test: Antibacterial activity against Streptococcus pyogenes harboring SPase with alanine residue at position 29 by modified CLSI microbroth dilution method; format: functional
Helicobacter pylori = test: Antibacterial activity against Helicobacter pylori harboring SPase with alanine residue at position 29 by modified CLSI microbroth dilution method; format: functional
Staphylococcus aureus [13] = test: Antibacterial activity against Staphylococcus aureus harboring SPase P29S mutant gene by modified CLSI microbroth dilution method; format: functional
[14] = system: Corynebacterium glutamicum; test: Antibacterial activity against Corynebacterium glutamicum harboring SPase with methionine residue at position 29 by modified CLSI microbroth dilution method; format: functional
Escherichia coli [15] = test: Antibacterial activity against Escherichia coli harboring wild type SPase by modified CLSI microbroth dilution method; format: functional
Pseudomonas aeruginosa [16] = test: Antibacterial activity against Pseudomonas aeruginosa harboring SPase P84S mutant gene by modified CLSI microbroth dilution method; format: functional
[17] = system: Staphylococcus epidermidis; test: Antibacterial activity against Staphylococcus epidermidis harboring wild type SPase by modified CLSI microbroth dilution method; format: functional
Chlamydia trachomatis = test: Antibacterial activity against Chlamydia trachomatis harboring SPase with leucine residue at position 29 by modified CLSI microbroth dilution method; format: functional
Lactococcus lactis = test: Antibacterial activity against Lactococcus lactis harboring SPase with leucine residue at position 29 by modified CLSI microbroth dilution method; format: functional
[18] = system: Staphylococcus epidermidis; test: Antibacterial activity against Staphylococcus epidermidis harboring SPase S29P mutant gene by modified CLSI microbroth dilution method; format: functional
[19] = Binding affinity to Escherichia coli delta 2 to 75 truncated type 1 signal peptidase by fluorescence analysis
[20] = system: Staphylococcus epidermidis; test: Antibacterial activity against Staphylococcus epidermidis harboring SPase with serine residue at position 29 by modified CLSI microbroth dilution method; format: functional
[21] = system: Staphylococcus haemolyticus; test: Antibacterial activity against Staphylococcus haemolyticus harboring SPase with serine residue at position 29 by modified CLSI microbroth dilution method; format: functional
Pseudomonas aeruginosa [22] = test: Antibacterial activity against Pseudomonas aeruginosa harboring wild type SPase by modified CLSI microbroth dilution method; format: functional
Streptococcus pneumoniae [23] = test: Antibacterial activity against Streptococcus pneumoniae harboring SPase with aspargine residue at position 29 by modified CLSI microbroth dilution method; format: functional

| SMILES | MIC [1] | MIC (Staphylococcus aureus [2]) | MIC (Streptococcus pneumoniae [3]) | MIC [4] | MIC [5] | MIC (Escherichia coli [6]) | MIC (Pseudomonas aeruginosa [7]) | MIC (Escherichia coli [8]) | MIC (Pseudomonas aeruginosa [9]) | MIC (Staphylococcus aureus [10]) | MIC (Streptococcus agalactiae) | also measured |
| --- | --- | --- | --- | --- | --- | --- | --- | --- | --- | --- | --- | --- |
| CC(C)CCCCCCCCC(=O)N(C)[C@H](CO)C(=O)N[C@H](C)C(=O)NCC(=O)N(C)[C@@H]1C(=O)N[C@@H](C)C(=O)N[C@H](C(=O)O)Cc2ccc(O)c(c2)-c2cc1ccc2O [ARYLOMYCIN A2] | 0.5 µg/mL (≈ 0.606 µM) | – | – | – | – | – | – | – | – | – | – | – |
| CCCCCCCCCCCCCCCC(=O)N(C)[C@H](CO)C(=O)N[C@H](C)C(=O)NCC(=O)N(C)[C@@H]1C(=O)N[C@@H](C)C(=O)N[C@H](C(=O)O)Cc2ccc(O)c(c2)-c2cc1ccc2O[C@@H]1O[C@@H](C)[C@H](O)[C@@H](O)[C@H]1O | – | 4 µg/mL (≈ 3.89 µM) | 8 µg/mL (≈ 7.79 µM) | 0.25 µg/mL (≈ 0.243 µM) | 8 µg/mL (≈ 7.79 µM) | 2 µg/mL (≈ 1.95 µM) | 16 µg/mL (≈ 15.6 µM) | > 64 µg/mL | > 64 µg/mL | > 64 µg/mL | > 64 µg/mL | – |
| CCCCCCCCCCCCCCCC(=O)N(C)[C@H](CO)C(=O)N[C@H](C)C(=O)NCC(=O)N(C)[C@@H]1C(=O)N[C@@H](C)C(=O)N[C@H](C(=O)O)Cc2cc(c(O)c([N+](=O)[O-])c2)-c2cc1ccc2O | – | 4 µg/mL (≈ 4.32 µM) | 16 µg/mL (≈ 17.3 µM) | 0.25 µg/mL (≈ 0.27 µM) | 8 µg/mL (≈ 8.64 µM) | 2 µg/mL (≈ 2.16 µM) | 8 µg/mL (≈ 8.64 µM) | > 64 µg/mL | > 64 µg/mL | > 64 µg/mL | 8 µg/mL (≈ 8.64 µM) | – |
| CCCCCCCCCCCCCCCC(=O)N(C)[C@H](CO)C(=O)N[C@H](C)C(=O)NCC(=O)N(C)[C@@H]1C(=O)N[C@@H](C)C(=O)N[C@H](C(=O)O)Cc2ccc(O)c(c2)-c2cc1ccc2O [ARYLOMYCIN C16] | 0.5 µg/mL (≈ 0.567 µM) | 4 µg/mL (≈ 4.54 µM) | 8 µg/mL (≈ 9.08 µM) | 0.25 µg/mL (≈ 0.284 µM) | 8 µg/mL (≈ 9.08 µM) | 2 µg/mL (≈ 2.27 µM) | 8 µg/mL (≈ 9.08 µM) | > 64 µg/mL | > 64 µg/mL | > 64 µg/mL | > 64 µg/mL | MIC (Staphylococcus aureus [11]): > 128 µg/mL; MIC (Escherichia coli [12]): 4 µg/mL (≈ 4.54 µM); MIC (Prescottella equi): 16 µg/mL (≈ 18.2 µM); MIC (Rhodococcus opacus): 2 µg/mL (≈ 2.27 µM); MIC (Streptococcus pyogenes): 16 µg/mL (≈ 18.2 µM); MIC (Helicobacter pylori): 4 µg/mL (≈ 4.54 µM); MIC (Staphylococcus aureus [13]): 2 µg/mL (≈ 2.27 µM); MIC [14]: 2 µg/mL (≈ 2.27 µM); MIC (Escherichia coli [15]): > 128 µg/mL; MIC (Pseudomonas aeruginosa [16]): 8 µg/mL (≈ 9.08 µM); MIC [17]: 0.25 µg/mL (≈ 0.284 µM); MIC (Chlamydia trachomatis): 6 µg/mL (≈ 6.81 µM); MIC (Lactococcus lactis): > 128 µg/mL; MIC [18]: 8 µg/mL (≈ 9.08 µM); Kd [19]: 979 nM; MIC [20]: 0.25 µg/mL (≈ 0.284 µM); MIC [21]: 2 µg/mL (≈ 2.27 µM); MIC (Pseudomonas aeruginosa [22]): > 128 µg/mL; MIC (Streptococcus pneumoniae [23]): 16 µg/mL (≈ 18.2 µM) |
